Measurements: US10626368B2, “Method for inducing cerebral cortex neurons” (KYOTO UNIVERSITY, priority 2015, dated 2020)

How the values were obtained:
[1] = test system: ES cells or the iPS cells; experiment: qPCR of marker gene expression in cells differentiated with added inhibitors; format: cell-based, human; conditions: 10 nM C59, spheres, qPCR
Source text: Human ES cells (KhES-1) were obtained from Institute for Frontier Medical Sciences, Kyoto University (Suemori H, et al. Biochem Biophys Res Commun. 345: 926-32, 2006). The human iPS cells 404C2 are cells obtained by introducing Oct3/4, Sox2, Klf4, L-MYC, LIN28 and p53shRNA into human fibroblasts, using an episomal vector, and these cells were obtained from Professor Yamanaka et al. in Kyoto University (Okita, et al, Nat Methods. 8: 409-412, 2011). The human iPS cells 836B1 are cells obtained by introducing Oct3/4, Sox2, Klf4, L-MYC, LIN28, GLIS1 and p53shRNA into human fibroblasts, using an episomal vector, and these cells were obtained from Professor Yamanaka et al. in Kyoto University. The ES cells and the iPS cells were cultured on SNL cells (Takahashi K, et al, Cell. 131: 861-872, 2007).
On the day before induction of differentiation, in order to separate the ES cells or the iPS cells, which had been cultured in a culture medium to which 10 μM Y-27632 (WAKO) had been added, from the SNL feeder cells, the SNL cells were removed with CTK and the remaining cells were then dissociated using Accumax (ICT). The cells were transferred on a 96-well plate (Lipidure-coat 96-well plate (NOF Corporation)) in an amount of 9×10^3 cells per well. Thereafter, the cells were subjected to a suspension culture in DMEM/F12 (WAKO) comprising 50 μM Y-27632 (WAKO), 10 μM SB43152 (Sigma), 10 ng/ml bFGF (Invitrogen), various types of Wnt inhibitors (DKK1 (R & D, 500 ng/ml), C59 (Cellagen Technology, 2-10 nM), XAV (Stemgent, 500 nM-2 μM) or IWP4 (Stemgent, 500 nM-2.5 μM)), LDN193189 (Stemgent), KSR (Invitrogen), 0.1 mM MEM non-essential amino acid (Invitrogen), 0.1 mM 2-mercaptoethanol (WAKO), and 2 mM L-Gln (Invitrogen) (initiation of differentiation induction, day 0). […] Three days later, the medium was exchanged with DMEM/F12 (WAKO) comprising various types of Wnt inhibitors (DKK1, C59, XAV or IWP4 (Stemgent)), LDN193189 (Stemgent), KSR (Invitrogen), 0.1 mM MEM non-essential amino acid (Invitrogen), 0.1 mM 2-mercaptoethanol (WAKO), and 2 mM L-Gln (Invitrogen) (day 6). Thereafter, the medium was exchanged with a fresh one of the same type every 3 days, and the culture was carried out for 18 days after the initiation of differentiation induction (day 18).
The obtained cell mass was transferred on a dish (24-well plate (BD)) coated with 50 μg/ml ornithine (Sigma), 5 μg/ml laminin (Sigma) and 5 μg/ml fibronectin (BD Bioscience Pharmingen), and the culture was continued in Neurobasal (Invitrogen), to which B27 (Invitrogen), 2 mM L-Gln, and 10 units/ml penicillin and streptomycin (Invitrogen) had been added. The culture was carried out for, at maximum, 46 days after the initiation of differentiation induction. It is to be noted that the medium was exchanged with a fresh one every 2 or 3 days.
In the above-described induction method, 500 ng/ml DKK1, 2 nM C59, 500 nM XAV or 500 nM IWP4 was added as a Wnt inhibitor to the cells, and the obtained mixture was then cultured for 18 days. Thereafter, the expression levels of Six3 (forebrain marker), Sox1 (neuroectodermal marker), Foxg1 (cerebral cortex-forming factor), Lhx2 (cerebral cortex-forming factor), Emx2 (forebrain back portion marker), CoupTF1 (forebrain back portion marker) and Pax6 (forebrain front portion marker) genes in the cultured cells were measured by a qPCR method (FIG. 2).
The concentration of C59 used as a Wnt inhibitor in the above-described induction method was examined. Specifically, without using C59, or using 2.5 nM, 10 nM and 1 μM C59, the cells were cultured for 18 days. […] The obtained spheres were subjected to immunostaining of using an antibody against Pax6. […] Furthermore, the expression levels of the Foxg1, Lhx2, Emx2 and CoupTF1 genes in the obtained spheres were measured according to a qPCR method (FIG. 4B). As a result, the expression level of CoupTF1 was low and the expression levels of Lhx2 and Foxg1 were high in the case of using 10 nM C59. […]

ES cells (Kh-1) = experiment: Adhesion of spheres to OFL coat dish; format: cell-based, human; conditions: 10 nM C59, ES cells (Kh-1)
Source text: Human ES cells (KhES-1) were obtained from Institute for Frontier Medical Sciences, Kyoto University (Suemori H, et al. Biochem Biophys Res Commun. 345: 926-32, 2006). The human iPS cells 404C2 are cells obtained by introducing Oct3/4, Sox2, Klf4, L-MYC, LIN28 and p53shRNA into human fibroblasts, using an episomal vector, and these cells were obtained from Professor Yamanaka et al. in Kyoto University (Okita, et al, Nat Methods. 8: 409-412, 2011). The human iPS cells 836B1 are cells obtained by introducing Oct3/4, Sox2, Klf4, L-MYC, LIN28, GLIS1 and p53shRNA into human fibroblasts, using an episomal vector, and these cells were obtained from Professor Yamanaka et al. in Kyoto University. The ES cells and the iPS cells were cultured on SNL cells (Takahashi K, et al, Cell. 131: 861-872, 2007). The obtained cell mass was transferred on a dish (24-well plate (BD)) coated with 50 μg/ml ornithine (Sigma), 5 μg/ml laminin (Sigma) and 5 μg/ml fibronectin (BD Bioscience Pharmingen), and the culture was continued in Neurobasal (Invitrogen), to which B27 (Invitrogen), 2 mM L-Gln, and 10 units/ml penicillin and streptomycin (Invitrogen) had been added. […] Furthermore, the expression levels of the Foxg1, Lhx2, Emx2 and CoupTF1 genes in the obtained spheres were measured according to a qPCR method (FIG. 4B). […]

Cc1cc(-c2ccc(CC(=O)Nc3ccc(-c4cccnc4)cc3)cc2)ccn1 [C59]
expression level of CoupTF1 [1]: low | expression level of Foxg1 [1]: high | expression level of Lhx2 [1]: high | adhesion of spheres to an OFL coat dish (ES cells (Kh-1)): did not adhere so much
